Assay results as given in patent publication US9012403B2, “Peptides as active agents to stabilize biological barriers” (XiberScience GmbH, priority 2010, dated 2015).
Marks after values point to notes of the source that are not given here.

What was measured:
GEF [1] = assay: GEF-activity in membrane fractions of ECV304 cells (RhoGEF Exchange Assay); format: cell-based; conditions: ECV 304, no stimulus, peptide 50 μg/ml
Protocol: (§1) To measure the GEF-inhibitory effect, the following cell lines were used: Caco-2 (epithelial cells from adeno-carcinoma), ECV304 (epithelial cells from bladder carcinoma) and HpMec (endothelial cells, immortalized pulmonary micro-vascular cells). All cells were grown at standard conditions (37° C., 5% CO2 and 95% relative humidity (rH)). Culture Medium used for Caco-2: DMEM+1 mM sodium pyruvate+20% FCS+1% Penicillin Streptomycin; for ECV 304: RPMI 1640+10% FCS+1% Penicillin Streptomycin; and for HpMec: IMDM+25 mM Hepes+10% Human Serum+1% Penicillin Streptomycin+1% L-Glutamine+ECGS/Heparin 2 ml. 4 h before the experiment, cells were starved by serum withdrawal. To induce GEF-activity, cells were stimulated with thrombin, lipopolysaccharide (LPS) or PMA for the indicated time in presence or absence of 50 μg/ml XIB1-a or XIB1-b. After stimulation, membrane fractions were prepared by using the commercial available “Compartemental Protein Extraction Kit” from Biochain institutes. Membrane fractions were prepared according to the manufacturer instructions. GEF-activity in membrane lysates was determined by using “RhoGEF Exchange Assay Biochem Kit” from Cytoskeleton Inc. according to manufacturer instructions. GEF-activity was measured as fluorescence at using the Fluoroskan Ascent FL 2.6 from Thermo Electron Corporation. The excitation Filter wavelength was set at 355 nm and the emission filter wavelength at 460 nm.

GEF [2] = assay: GEF-activity in membrane fractions of HpMec cells (RhoGEF Exchange Assay); format: cell-based; conditions: HpMec, no stimulus, peptide 50 μg/ml
Protocol: as §1

GTP-bound RhoA [3] = assay: GTP-associated active RhoA in ECV304 membrane fraction (western blot); format: cell-based; conditions: ECV 304, no stimulus, peptide 50 μg/ml
Protocol: (§2) To measure the GTP-associated active RhoA, the following cell lines were used: Caco-2, ECV304 and HpMec. All cells were grown at standard conditions (37° C., 5% CO2 and 95% rH). 4 h before the experiment, cells were starved by serum withdrawal. To induce GEF-activity, cells were stimulated with thrombin, LPS or PMA for the indicated time in presence or absence of 50 μg/ml XIB1-a or XIB1-b. After stimulation, membrane fractions were prepared by using the commercial available “Compartemental Protein Extraction Kit” from Biochain Institutes. Membrane fractions were prepared according to the manufacturer instructions. The membrane fraction was separated on 15% polyacrylamide gel according to standard procedures of gel electrophoresis. The gels were afterwards blotted on a nitrocellulose membrane according to standard procedures of western blotting. GTP-bound RhoA was detected using RhoA-GTP monoclonal antibody from NewEast Inc. in a dilution of 1:5000. Protein bands were analyzed with the Dolphin-1D Gel analysis system (Wealtec).

GTP-bound RhoA [4] = assay: GTP-associated active RhoA in HpMec membrane fraction (western blot); format: cell-based; conditions: HpMec, no stimulus, peptide 50 μg/ml
Protocol: as §2

GEF [5] = assay: GEF-activity in membrane fractions of Caco-2 cells (RhoGEF Exchange Assay); format: cell-based; conditions: CaCo-2, no stimulus, peptide 50 μg/ml
Protocol: as §1

LPS induced lung injury = assay: LPS induced lung injury, bronchoalveolar lavage; format: in vivo; conditions: mice, n = 20
Protocol: Male C57Bl/6 Mice (Charles River, Germany) were kept at the animal facility of the Medical University of Vienna, feed with standard diet and water was provided ad libitum. All interventions were performed according to the guide lines of AAALAC (Association for Assessment and Accreditation of Laboratory Animal Care). All experiment were approved by the Ethic committee of the Medical University of Vienna. Mice were anesthetized with isoflouran and treated with 100 ng of LPS (E. coli O55:B5, Sigma Aldrich) intranasally. XIB1-a or XIB1-b was applied either intra-peritoneally (2×2 mg/kg) or via inhalation (2×4 mg/kg), first application was performed concomitantly with LPS administration, the second application was performed 1 h after the LPS inhalation.
The trachea was exposed through a midline incision and canulated with a sterile 20-gauge catheter (BD Venflon™, Becton Dickinson Infusion Therapy, Helsingborg, Sweden). Bilateral broncho-alveolar lavage fluid (BALF) was gained by instilling two 0.5 ml aliquots of sterile saline. Approximately 0.9-1 ml BALF was retrieved per mouse. Total cell numbers were counted from each sample using a hemo-cytometer (Türck chamber), BALF differential cell counts were done on cytospin preparations stained with Giemsa. For protein measurements, BALF was diluted 1:2 in buffer containing 300 mM NaCl, 30 mM Tris, 2 mM MgCl2, 2 mM CaCl2, and Pepstatin A, Leupeptin and Aprotinin (all 20 ng/ml; pH 7.4). Protein levels in BALF were measured using the BCA protein kit according to the manufacturer's instructions (Pierce, Rockford, Ill.).
In addition, the same set-up as described above was used for comparing the impact of XIB1-b compared to Bβ15-42 (PLoS ONE (2009), 4(4): e5391), a peptide derived from fibrin having the sequence […] (SEQ ID NO: 41). Bβ15-42 was added in the same manner as XIB1-b. Again, protein content and cell count of BALF was measured.

[6] = system: Phosphorylated Myosin Light Chain (MLC) and actin stress fibers; assay: MLC phosphorylation and actin stress fiber formation in HpMec cells (microscopy score); format: cell-based; conditions: no stimulus, peptide 50 μg/ml
Protocol: (§3) To measure MLC phosphorylation and actin stress fiber formation, the following cell lines were used: Caco-2, ECV304 and HpMec. All cells were grown at standard conditions (37° C., 5% CO2 and 95% rH). Culture Medium used: for Caco-2: DMEM+1 mM sodium pyruvate+20% FCS+1% Penicillin Streptomycin; for ECV 304: RPMI 1640+10% FCS+1% Penicillin Streptomycin; and for HpMec: IMDM+25 mM Hepes+10% Human Serum+1% Penicillin Streptomycin+1% L-Glutamine+ECGS/Heparin 2 ml. 4 h before the experiment, cells were starved by serum withdrawal. To induce GEF-activity, cells were stimulated with thrombin, LPS or PMA for the indicated time in presence or absence of 50 μg/ml XIB1-a or XIB1-b. After stimulation, cells were fixed using 4% PFA. Phospho MLC was detected by using the “rabbit anti phosphor-myosin light chain antibody” from Chemicon in a concentration of 3 μl/ml in PBS (Gibco) supplemented with 0.1% Triton X-100. As detection antibody, the Alexa 448 tagged “anti Rabbit IgG Antibody” from Invitrogen was used in a concentration of 0.5 μl/ml in PBS (Gibco) supplemented with 0.1% Triton X-100. Aktin was detected using TRITC-labeled Phalloidin in a concentration of 0.5 μl/ml in PBS (Gibco) supplemented with 0.1% Triton. Stained cells were analyzed by using a Zeiss Laser Scan microscope. Evaluation of the cyto-skeletal activation was performed by 2 independent observers that were blinded to the conditions. Evaluation criteria were set as follows:
(§4) Actin: parallel actin bundles absent=0; distinct bundle formation=1; prominent parallel bundles=2; Phospho-MLC: present at cell poles=0; slight co-localization with actin bundles=1; prominent co-localization with actin bundles=2

[7] = system: Phosphorylated Myosin Light Chain (MLC) and actin stress fibers; assay: MLC phosphorylation and actin stress fiber formation in ECV304 cells (microscopy score); format: cell-based; conditions: ECV 304, no stimulus, peptide 50 μg/ml
Protocol: as §3, §4

GTP-bound RhoA [8] = assay: GTP-associated active RhoA in Caco-2 membrane fraction (western blot); format: cell-based; conditions: CaCo-2, no stimulus, peptide 50 μg/ml
Protocol: as §2

[9] = system: Phosphorylated Myosin Light Chain (MLC) and actin stress fibers; assay: MLC phosphorylation and actin stress fiber formation in Caco-2 cells (microscopy score); format: cell-based; conditions: CaCo-2, no stimulus, peptide 50 μg/ml
Protocol: as §3, §4

[10] = 6 h after LPS administration, intratracheal application

Sequence: GGGGGLSRRIP (/note=“Description of artificial sequence variable insert”) [Control Peptide, random peptide used for control purposes, reference compound]
- GEF-activity, relative values compared to unstimulated control (Mean) (GEF [1]; 1 min): 1
- GEF-activity, relative values compared to unstimulated control (Mean) (GEF [1]; 5 min): 1
- GEF-activity, relative values compared to unstimulated control (Mean) (GEF [2]; 1 min): 1
- GEF-activity, relative values compared to unstimulated control (Mean) (GEF [2]; 5 min): 1
- GTP-bound RhoA, relative values compared to unstimulated control (Mean) (GTP-bound RhoA [3]; 1 min): 1
- GTP-bound RhoA, relative values compared to unstimulated control (Mean) (GTP-bound RhoA [3]; 5 min): 1
- GTP-bound RhoA, relative values compared to unstimulated control (Mean) (GTP-bound RhoA [4]; 1 min): 1
- GTP-bound RhoA, relative values compared to unstimulated control (Mean) (GTP-bound RhoA [4]; 5 min): 1
- GEF-activity, relative values compared to unstimulated control (Mean) (GEF [5]; 1 min): 1
- GEF-activity, relative values compared to unstimulated control (Mean) (GEF [5]; 5 min): 1
- counts of neutrophils in the BALF (mean +/ SD) (LPS induced lung injury; comparison with Bβ15-42 (Table 6), 6 h after LPS, intraperitoneal application): 91 +/− 33 neutrophils/ml (× 10^3)
- counts of neutrophils in the BALF (mean +/ SD) (LPS induced lung injury; comparison with Bβ15-42 (Table 6), 6 h after LPS, intratracheal plus intraperitoneal application): 94 +/− 30 neutrophils/ml (× 10^3)
- albumine content of BALFs (mean +/ SD) (LPS induced lung injury; comparison with Bβ15-42 (Table 6, last section), 6 h after LPS, intraperitoneal application as printed): 250 ± 25 µg/mL
- counts of neutrophils in the BALF (mean +/ SD) (LPS induced lung injury; 6 h after LPS administration, intraperitoneal application (2×2 mg/kg)): 88 +/− 33 neutrophils/ml (× 10^3)
- albumine content of BALFs (mean +/ SD) (LPS induced lung injury; [10]): 237 ± 32 µg/mL
- counts of neutrophils in the BALF (mean +/ SD) (LPS induced lung injury; [10]): 90 +/− 30 neutrophils/ml (× 10^3)
- MLC phosphorylation and actin stress fiber formation, evaluation score (Mean) ([6]; 1 min): 0
- MLC phosphorylation and actin stress fiber formation, evaluation score (Mean) ([6]; 5 min): 0
- MLC phosphorylation and actin stress fiber formation, evaluation score (Mean) ([7]; 1 min): 0
- MLC phosphorylation and actin stress fiber formation, evaluation score (Mean) ([7]; 5 min): 0
- GTP-bound RhoA, relative values compared to unstimulated control (Mean) (GTP-bound RhoA [8]; 1 min): 1
- GTP-bound RhoA, relative values compared to unstimulated control (Mean) (GTP-bound RhoA [8]; 5 min): 1
- MLC phosphorylation and actin stress fiber formation, evaluation score (Mean) ([9]; 1 min): 0
- MLC phosphorylation and actin stress fiber formation, evaluation score (Mean) ([9]; 5 min): 0
